pIC50: −log10 of the molar value.

The target in this assay is T1, Vesicular acetylcholine transporter (Torpedo californica, UniProt P81721).
T1 sequence (P81721 whole entry): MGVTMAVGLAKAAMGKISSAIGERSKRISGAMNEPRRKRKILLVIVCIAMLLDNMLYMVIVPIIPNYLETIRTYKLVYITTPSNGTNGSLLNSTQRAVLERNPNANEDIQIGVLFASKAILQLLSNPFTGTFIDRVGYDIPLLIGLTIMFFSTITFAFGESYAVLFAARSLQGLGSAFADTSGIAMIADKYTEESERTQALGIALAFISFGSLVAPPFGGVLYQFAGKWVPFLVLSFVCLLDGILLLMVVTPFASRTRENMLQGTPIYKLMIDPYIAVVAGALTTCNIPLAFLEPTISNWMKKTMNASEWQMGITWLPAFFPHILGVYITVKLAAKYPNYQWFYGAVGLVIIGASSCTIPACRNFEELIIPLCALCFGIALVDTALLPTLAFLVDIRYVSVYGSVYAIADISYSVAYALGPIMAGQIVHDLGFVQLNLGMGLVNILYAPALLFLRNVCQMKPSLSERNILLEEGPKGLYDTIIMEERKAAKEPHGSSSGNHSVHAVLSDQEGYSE
Kind of assay: Displacement of [3H]vesamicol from Vesamicol receptor of Torpedo californica. Also noted: species or system Tetronarce californica.
`OC(Cc1cccc2ccccc12)CN1CCC(c2ccccc2)CC1` (centres undefined) showed a pIC50 of 5.85. The compound `COc1cccc(CC(O)CN2CCC(c3ccccc3)CC2)c1` (centres undefined) showed a pIC50 of 6.94.

For `Oc1ccc(CC(O)CN2CCC(c3ccccc3)CC2)cc1` (centres undefined), the pIC50 is 6.66. Compared with the last compound, the pIC50 is 0.28 log units lower. Next, `OC(Cc1ccc2ccccc2c1)CN1CCC(c2ccccc2)CC1` (centres undefined): 6.84; `OC(Cc1cccc(I)c1)CN1CCC(c2ccccc2)CC1` (centres undefined): 7.14; `OC(Cc1cccc(Br)c1)CN1CCN(c2ccccc2)CC1` (centres undefined): 6.00.

Take `Oc1cccc(CC(O)CN2CCC(c3ccccc3)CC2)c1` (centres undefined): the pIC50 is 6.28. As for `OC(Cc1ccc(Br)cc1)CN1CCN(c2ccccc2)CC1` (centres undefined), the pIC50 is 5.81. As to `OC(Cc1cccc(Br)c1)CN1CCC(c2ccccc2)CC1` (centres undefined), the pIC50 is 7.14.

In general, pIC50 refers to −log10 of the IC50, conventionally taken in molar units. A higher pIC50 goes with a small IC50.

Values taken from ChEMBL document CHEMBL1125810, “Acyclic analogues of 2-(4-phenylpiperidino)cyclohexanol (vesamicol): conformationally mobile inhibitors of vesicular acetylcholine transport” (J Med Chem, 1991).
